Results as given in ChEMBL document CHEMBL1142207, “Aspirin antagonism in isoniazid treatment of tuberculosis in mice” (2007).
Active and inactive are the calls of the source. The rule behind the calls is not given here.

Assays:
[1] = system: Mycobacterium tuberculosis; assay: Clearance of Mycobacterium tuberculosis H37Rv in BALB/c mouse spleen at 25 mg/kg, po five times/week after 1 month relative to control; assay type: functional, organism-based; set-up: dose 25 mg/kg
[2] = system: Mycobacterium tuberculosis; assay: Clearance of Mycobacterium tuberculosis H37Rv in BALB/c mouse lung at 25 mg/kg, po five times/week after 1 month relative to control; assay type: functional, organism-based; set-up: dose 25 mg/kg
[3] = system: Mycobacterium tuberculosis; assay: Decrease in spleen infection of BALB/c mouse infected with Mycobacterium tuberculosis H37Rv at 20 mg/kg, po five times/week after 1 month relative to control; assay type: functional
[4] = system: Mycobacterium tuberculosis; assay: Decrease in spleen infection of BALB/c mouse infected with Mycobacterium tuberculosis H37Rv at 40 mg/kg, po five times/week after 1 month relative to control; assay type: functional
[5] = system: Mycobacterium tuberculosis; assay: Decrease in spleen infection of BALB/c mouse infected with Mycobacterium tuberculosis H37Rv at 10 mg/kg, po five times/week after 1 month relative to control; assay type: functional

SMILES | Activity [1] | Activity [2] | Log10 cfu [3] | Log10 cfu [4] | Log10 cfu [5]
NNC(=O)c1ccncc1 | Active | Active | – | – | –
CC(=O)Oc1ccccc1C(=O)O [ASPIRIN] | – | – | 4.55 | 4.38 | 3.48
